# Results from patent US10653666B1, “Cardioprotective nano-pharmaceutical formulation” (King Abdulaziz University, priority 2020, dated 2020).
# Columns and labels:
# Assay type in all cases: in vivo, rat
# [1] = system: MetS animals (high-fructose high-salt diet); experiment: Blood pressure in metabolic syndrome rats; details: oral 25 mg/kg/day in the last 6 weeks, vs MetS, p<0.05
# Experimental: (§1) Rats used in this study were male Wistar 6-8 weeks old rats weighing 180-200 g (King Fand Medical Research Center, King Abdulaziz University, Jeddah, Saudi Arabia). Clear polypropylene cages were used to house 4 rats each and included access to purified water and standard rodent pellets. Constant animal housing conditions applied constituting of alternating 12 hours light and dark, a temperature of 22±3° C., a relative humidity of 50-60% and adequate ventilation. Experimental protocol was approved by the Research Ethical Committee, Faculty of Pharmacy, King Abdulaziz University, Jeddah, Saudi Arabia and was conducted in accordance with the Saudi Arabia Research Bioethics and Regulations.
# Animals were randomly divided into 5 experimental groups; Control (C) rats received regular tap water and food pellets. MetS group (M) in which fructose (10%) was added to drinking water and NaCl (3%) to food pellets. […]
# Invasive real-time recording of cardiac contractility was carried out according to the method described in previous publication from our laboratories (El-Bassossy et al., 2017). After urethane anaethesia, animals were placed on controlled heating pads, and body temperature, measured via a rectal probe, was maintained at 37° C. […] After stabilization for 5 min, the signals were continuously recorded at a sampling rate of 1000 s−1. […]
# [2] = system: MetS animals (high-fructose high-salt diet); experiment: Overall protection from cardiovascular complication of metabolic syndrome in rats; details: oral 25 mg/kg/day in the last 6 weeks
# Experimental: Rats used in this study were male Wistar 6-8 weeks old rats weighing 180-200 g (King Fand Medical Research Center, King Abdulaziz University, Jeddah, Saudi Arabia). Clear polypropylene cages were used to house 4 rats each and included access to purified water and standard rodent pellets. Constant animal housing conditions applied constituting of alternating 12 hours light and dark, a temperature of 22±3° C., a relative humidity of 50-60% and adequate ventilation. Experimental protocol was approved by the Research Ethical Committee, Faculty of Pharmacy, King Abdulaziz University, Jeddah, Saudi Arabia and was conducted in accordance with the Saudi Arabia Research Bioethics and Regulations. Animals were randomly divided into 5 experimental groups; Control (C) rats received regular tap water and food pellets. MetS group (M) in which fructose (10%) was added to drinking water and NaCl (3%) to food pellets. This regimen began in 6-week old rats and continued for 12 weeks. Standard quercetin group (MQ) administered 25 mg/kg quercetin suspension every day in the last 6 weeks of fructose and salt administration. Nano formula vehicle group (MN) received the same volumes of SNEDDS ingredients (Pumpkin seed oil, D-α-tocopheryl polyethylene glycol succinate (TPGS) and PEG 200) without quercetin every day in the last 6 weeks of fructose and salt administration. […]
# [3] = system: MetS animals (high-fructose high-salt diet); experiment: Invasive real-time cardiac contractility recording in metabolic syndrome rats; details: vs MetS; for Cardiac contractility (contractility index): oral 25 mg/kg/day in the last 6 weeks of 12 weeks diet
# Experimental: as §1
# Animals were randomly divided into 5 experimental groups; Control (C) rats received regular tap water and food pellets. MetS group (M) in which fructose (10%) was added to drinking water and NaCl (3%) to food pellets. This regimen began in 6-week old rats and continued for 12 weeks. Standard quercetin group (MQ) administered 25 mg/kg quercetin suspension every day in the last 6 weeks of fructose and salt administration. Nano formula vehicle group (MN) received the same volumes of SNEDDS ingredients (Pumpkin seed oil, D-α-tocopheryl polyethylene glycol succinate (TPGS) and PEG 200) without quercetin every day in the last 6 weeks of fructose and salt administration. The nanoformula group (MNQ) administered 25 mg/kg of quercetin in the form of nano-pharmaceutical formulation every day in the last 6 weeks of fructose and salt administration.
# Invasive real-time recording of cardiac contractility was carried out according to the method described in previous publication from our laboratories (El-Bassossy et al., 2017). After urethane anaethesia, animals were placed on controlled heating pads, and body temperature, measured via a rectal probe, was maintained at 37° C. A microtip pressure transducer (SPR-320; Millar Instruments, Houston, Tex., USA) was inserted into the right carotid artery and advanced into the left ventricle under pressure control. After stabilization for 5 min, the signals were continuously recorded at a sampling rate of 1000 s−1. The microtip catheter was connected to a PowerLab Data Interface Module connected to a PC running LabChart professional software (version 7.3; ADI Instruments, Bella Vista, Australia) containing a blood pressure module.
# [4] = system: MetS animals (high-fructose high-salt diet); experiment: Cardiac conductivity (surface ECG) recording in metabolic syndrome rats; details: oral 25 mg/kg/day in the last 6 weeks, vs MetS, p<0.05
# Experimental: Rats used in this study were male Wistar 6-8 weeks old rats weighing 180-200 g (King Fand Medical Research Center, King Abdulaziz University, Jeddah, Saudi Arabia). Clear polypropylene cages were used to house 4 rats each and included access to purified water and standard rodent pellets. Constant animal housing conditions applied constituting of alternating 12 hours light and dark, a temperature of 22±3° C., a relative humidity of 50-60% and adequate ventilation. Experimental protocol was approved by the Research Ethical Committee, Faculty of Pharmacy, King Abdulaziz University, Jeddah, Saudi Arabia and was conducted in accordance with the Saudi Arabia Research Bioethics and Regulations. Animals were randomly divided into 5 experimental groups; Control (C) rats received regular tap water and food pellets. MetS group (M) in which fructose (10%) was added to drinking water and NaCl (3%) to food pellets. This regimen began in 6-week old rats and continued for 12 weeks. Standard quercetin group (MQ) administered 25 mg/kg quercetin suspension every day in the last 6 weeks of fructose and salt administration. […] The standard limb lead II of the surface ECG was recorded by the Powerlab system (ADI Instruments) connected to a PC running LabChart professional software (version 7.3) containing an ECG module, which detects different components of the ECG. […]
# [5] = oral 25 mg/kg/day in the last 6 weeks, p<0.05
smiles,measurement,setting,value
"O=c1c(O)c(-c2ccc(O)c(O)c2)oc2cc(O)cc(O)c12 [regular size quercetin, quercetin]",Diastolic blood pressure (DBP),[1],partially reduced
same,Systolic blood pressure (SBP),[1],partially reduced
same,Cardiovascular function / cardioprotective effect (overall),[2],failed to completely protect
same,Cardiac contractility (contractility index),"[3]; p<0.05, 25 mg/kg/day",did not significantly affect
same,Cardiac contractility (contractility index),"[3]; p<0.05, listed as suspension of quercetin, 25 mg/kg/day",failed to affect
same,"Diastolic function (−dP/dt, dp/dt min)",[3]; [5],did not significantly affect
same,Left ventricular systolic function (dP/dt max),[3]; [5],did not significantly affect
same,JT interval,[4],did not significantly improve
same,QTc interval,[4],did not significantly improve
